# From patent US20260284005A1, “INHIBITING MITOGEN-ACTIVATED PROTEIN (MAP)/ERK KINASE (MEK)1 AND MEK2 AND RELATED METHODS OF TREATMENT” (priority 2023, published 2026)
# Experiments:
# [1] = system: HT-29 BRAF^V600E colorectal cancer xenograft; assay: HT-29 colorectal xenograft tumor model; type: in vivo, athymic nude mice; details: HT-29 BRAFV600E xenograft
# Description: An integrated translational platform with integrated bioinformatics utilized patient-aligned model systems was used to identify key factors that help predict response to Compound A and its unique DCI profile.
# HT-29 cells = assay: 3D-TGA; type: cell-based, human; details: Homo sapiens, HT-29, read-out: IC50 in 3D-TGA Encorafenib
# Procedure, shortened: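 Seeding is in 3D BME/medium (1:1) matrix at 3000 cells per well, with growth at 37° C in 5% O2 and 5% CO2. EdU incorporation is detected via copper-catalysed click staining, and segmented images give the fraction of proliferating cells.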
# LS411N cells = assay: 3D-TGA; type: cell-based; details: Homo sapiens, LS-411N; LS411N, COL, BRAF V600E; read-out: IC50 in 3D-TGA Encorafenib
# A375 cells = assay: 3D-TGA; type: cell-based; details: Homo sapiens, A-375, read-out: IC50 in 3D-TGA Encorafenib
# Description: Cells were seeded in 3D cultures in a black-walled, clear-bottom, non-tissue culture treated, 384-well plate (3000 cells per well) using a 1:1 mixture of BME and a custom media and grown in a humidified incubator with 5% CO2 and 5% O2, which approximates capillary levels for each gas, at 37° C. […] Cells were assessed for cell proliferation using EdU cell proliferation staining. […] Cells were permeabilized with 30 μL of filtered 0.5% Triton X-100 in PBS for 20 minutes at room temperature. Samples were washed twice gently with PBS. Cells were stained utilizing click-iT chemistry by adding 20 μL of staining cocktail containing 2 mM copper sulfate, 8 μM sulfo-Cy5-azide, and 20 mg/ml ascorbic acid in PBS and incubated 30-60 minutes at room temperature in dark. […] Plates were imaged with the Molecular Devices Pico ImageXpress. Images were segmented and percentage of cells with EdU incorporation was quantified to calculate antiproliferative effects of the drugs.
# Five (5)-ethynyl-2′-deoxyuridine (EdU) data was represented as percentage EdU positive cells quantified by high content imaging from the Molecular Devices ImageXpress® Pico.
smiles,measurement,setting,value
COC(=O)N[C@@H](C)CNc1nccc(-c2cn(C(C)C)nc2-c2cc(Cl)cc(NS(C)(=O)=O)c2F)n1 [encorafenib],"tumor growth inhibition, monotherapy",[1],superior tumor growth inhibition to binimetinib
same,IC50,HT-29 cells,> 1000 nM
same,IC50,LS411N cells,> 1000 nM
same,IC50,A375 cells,< 50 nM
